The values that follow come from US9630947B2, “Therapeutic compounds and related methods of use” (OTSUKA PHARMACEUTICAL CO., LTD., priority 2009, dated 2017).

For this experiment, the target named is T1, purified STEP46 enzyme (Homo sapiens, UniProt P54829).
T1 sequence (P54829 1-565): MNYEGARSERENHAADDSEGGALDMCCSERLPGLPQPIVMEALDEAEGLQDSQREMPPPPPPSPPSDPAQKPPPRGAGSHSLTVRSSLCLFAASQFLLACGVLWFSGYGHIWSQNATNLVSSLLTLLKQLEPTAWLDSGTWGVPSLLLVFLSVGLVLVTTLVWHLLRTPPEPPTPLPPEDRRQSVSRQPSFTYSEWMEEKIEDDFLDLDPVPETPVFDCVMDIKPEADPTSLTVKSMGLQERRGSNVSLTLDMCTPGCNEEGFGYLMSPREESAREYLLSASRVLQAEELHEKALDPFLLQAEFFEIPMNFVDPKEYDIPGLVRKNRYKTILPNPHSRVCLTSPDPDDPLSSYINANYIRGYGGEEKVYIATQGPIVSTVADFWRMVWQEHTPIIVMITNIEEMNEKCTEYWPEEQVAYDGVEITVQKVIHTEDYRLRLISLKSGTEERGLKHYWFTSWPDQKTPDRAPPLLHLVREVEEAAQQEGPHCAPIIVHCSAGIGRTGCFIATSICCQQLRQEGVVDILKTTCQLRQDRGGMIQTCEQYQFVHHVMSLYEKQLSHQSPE
Briefly: STEP46 biochemical assay (DiFMUP fluorescence phosphatase assay). Particulars: DiFMUP 10 μM, read-out: STEP IC50. The procedure, abridged: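 Compounds preincubated 30 min at room temperature with purified STEP46 (1 ng/well) in 50 mM Hepes, 1 mM DTT, 0.02% Brij35, then 10 μM DiFMUP (final) added for 90 min at 27 °C; 2% DMSO, fluorescence at 360/460 nm. IC50 from four-parameter fit of % inhibition; activators reported as negative % inhibition at 25, 50 and 100 uM.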
As for `FC(F)Oc1cc(Cl)cc(Nc2nc(-c3ccnnc3)nc3ccccc23)c1` [Compound 1212], the IC50 lay in the range of 1000 to 10000 nM.
Take `COc1ccc2nc(-c3cccnc3)nc(Nc3nc(-c4cccc(F)c4F)cs3)c2c1` [Compound 452]: the IC50 was below 1000 nM.
As for `CNc1nc(-c2cccnc2)nc2cc(-c3cccc(C(C)=O)c3)ccc12` [Compound 1350], the figure is 1000 to 10000 nM; as for `COc1ccc2nc(-c3cccnc3)nc(Nc3c(F)cccc3Cl)c2c1` [Compound 934], below 1000 nM.
As for `Fc1ccc(Nc2nc(-c3cccnc3)nc3ccc(-c4ccncc4)cc23)cc1Cl` [Compound 651], the IC50 was below 1000 nM.
Then `COc1ccc2nc(-c3cccnc3)nc(Nc3nnc(-c4ccc(Cl)cc4)s3)c2c1` [Compound 412], with below 1000 nM; and `CCOC(=O)c1csc(Nc2nc(-c3cccnc3)nc3ccc(OC)cc23)n1` [Compound 474], with 1000 to 10000 nM.
Then `COc1ncc(-c2ccc3c(Nc4ccc(F)c(Cl)c4)nc(-c4cccnc4)nc3c2)cn1` [Compound 679], with below 1000 nM.
Then `Fc1ccc(Nc2nc(-c3cccnc3)nc3ccc(-c4ccsc4)cc23)cc1Cl` [Compound 648], with 1000 to 10000 nM.
For `CCOc1ccc2nc(-c3cccnc3)nc(Nc3ccc4nonc4c3)c2c1` [Compound 334], the IC50 was in the range of 1000 to 10000 nM.
As for `COc1ccc2nc(-c3cccnc3)nc(Nc3ccccc3Br)c2c1` [Compound 437], the figure is 1000 to 10000 nM.
With `COc1ccc2nc(-c3cccnc3)nc(Nc3ccc4c(C)cc(=O)[nH]c4c3)c2c1` [Compound 333], the IC50 was below 1000 nM.
As for `CNc1nc(-c2cccnc2)nc2ccc(-c3csc4ccccc34)cc12` [Compound 1339], the figure is 1000 to 10000 nM; as for `COc1ccc2nc(-c3cccnc3)nc(Nc3nc(-c4cc(F)ccc4F)cs3)c2c1` [Compound 458], below 1000 nM.
In the case of `COc1ccc2nc(-c3cccnc3)nc(Nc3ccccc3C(=O)NCCC(F)(F)F)c2c1` [Compound 899], the IC50 lay within 1000 to 10000 nM.
As for `CCOc1ccc2nc(-c3cccnc3)nc(Nc3ccc4ccc(=O)[nH]c4c3)c2c1` [Compound 335], the figure is below 1000 nM; as for `CN(C)c1nc(-c2cccnc2)nc2ccc(-c3ccccc3[N+](=O)[O-])cc12` [Compound 1334], above 10000 nM; as for `CNc1nc(-c2cccnc2)nc2cc(-c3cc(F)ccc3F)ccc12` [Compound 1601], 1000 to 10000 nM.
As for `CCNC(=O)c1sc(Nc2nc(-c3cccnc3)nc3ccc(OC)cc23)nc1-c1ccccc1` [Compound 1126], the figure is 1000 to 10000 nM; as for `COc1ccc2nc(-c3cccnc3)nc(Nc3ccccc3C(=O)NC(C)c3cccc(C(F)(F)F)c3)c2c1` (stereo not shown) [Compound 888], above 10000 nM; as for `COc1cc(-c2ccc3nc(-c4cccnc4)nc(Nc4ccc(F)c(Cl)c4)c3c2)ccc1C` [Compound 670], below 1000 nM.
In the case of `Fc1cccc(-c2ccc3nc(-c4cccnc4)nc(NC4CCCCC4)c3c2)c1F` [Compound 1516], the IC50 is above 10000 nM.
As for `CNc1nc(-c2cccnc2)nc2ccc(-c3cccnc3OC)cc12` [Compound 1330], the figure is above 10000 nM.
As for `COc1ccc2nc(-c3cccnc3)nc(Nc3nc(-c4ccccc4)c(C)s3)c2c1` [Compound 456], the IC50 is below 1000 nM.
On to `CN(C)c1nc(-c2cccnc2)nc2ccc(-c3cccc(Cl)c3)cc12` [Compound 1333], for which the IC50 was above 10000 nM.
As for `COc1ccc2nc(-c3cccnc3)nc(Nc3ccc(F)cc3Cl)c2c1` [Compound 933], the figure is 1000 to 10000 nM; as for `N#Cc1cccc(Nc2nc(-c3cnccn3)nc3cc(Cl)ccc23)c1` [Compound 1144], 1000 to 10000 nM.
Turning to `CNc1nc(-c2cccnc2)nc2cc(-c3cccc(C#N)c3)c(C)cc12` [Compound 1409], the IC50 fell in the range of 1000 to 10000 nM.
Then `CNc1nc(-c2cccnc2)nc2cc(-c3ccccc3C#N)ccc12` [Compound 1363], with 1000 to 10000 nM; and `COc1ccc2nc(-c3cccnc3)nc(Nc3ncc(-c4ccccc4)s3)c2c1` [Compound 418], with 1000 to 10000 nM.
Then `COc1ccc2nc(-c3cccnc3)nc(Nc3nc(-c4ccc(C(F)(F)F)cc4)cs3)c2c1` [Compound 443], with below 1000 nM.
Take `Fc1ccc(Nc2nc(-c3cncnc3)nc3ccccc23)cc1Cl` [Compound 1230]: the IC50 was 1000 to 10000 nM.
Consider `Cc1cc(Cl)cc2c(Nc3ccccc3C(=O)O)nc(-c3cnccn3)nc12` [Compound 1227], for which the IC50 lay in the range of 1000 to 10000 nM.
As for `Fc1ccc(Nc2nc(-c3cccnc3)nc3ccc(-c4ccccc4)cc23)cc1Cl` [Compound 631], the figure is 1000 to 10000 nM; as for `COc1ccc2nc(-c3cccnc3)nc(Nc3ccc4nonc4c3)c2c1` [Compound 332], below 1000 nM.
As for `CNc1nc(-c2cccnc2)nc2ccc(-c3ccc4c(cnn4C)c3)cc12` [Compound 1366], the IC50 fell in the range of 1000 to 10000 nM.
As for `Fc1ccc(Nc2nc(-c3cccnc3)nc3cc(-c4ccccc4)ccc23)cc1Cl` [Compound 692], the figure is below 1000 nM.
As for `CCCOCCOc1cccc(-c2ccc3nc(-c4cccnc4)nc(NC)c3c2)c1` [Compound 1497], the figure is 1000 to 10000 nM; as for `CN(C)C(=O)COc1ccc2nc(-c3cccnc3)nc(Oc3ccc(F)c(Cl)c3)c2c1` [Compound 846], 1000 to 10000 nM.
As for `CCOc1ccc2nc(-c3cccnc3)nc(Nc3ccccc3C(N)=O)c2c1` [Compound 73], the figure is 1000 to 10000 nM; as for `Clc1ccc(Nc2nc(-c3cnccn3)nc3ccccc23)cc1Cl` [Compound 1218], 1000 to 10000 nM.
As for `CCOc1ccc2nc(-c3cccnc3)nc(Nc3nc(-c4cccc(F)c4F)cs3)c2c1` [Compound 470], the IC50 lay in the range of 1000 to 10000 nM.
As for `CNc1nc(-c2cccnc2)nc2c(C)c(-c3ccccc3)ccc12` [Compound 1454], the figure is above 10000 nM.
As for `Cc1cc(Cl)cc2c(Nc3cccc(OC(F)F)c3)nc(-c3ccnnc3)nc12` [Compound 1165], the IC50 was below 1000 nM.
With `CCc1sc(Nc2nc(-c3cccnc3)nc3ccc(OC)cc23)nc1-c1ccccc1` [Compound 463], the IC50 was 1000 to 10000 nM.
On to `Fc1ccc(Nc2nc(-c3cccnc3)nc3ccc(-c4cccc(OC(F)(F)F)c4)cc23)cc1Cl` [Compound 658], for which the IC50 fell in the range of 1000 to 10000 nM.
As for `Fc1ccc(Nc2nc(-c3cccnc3)nc3cc(-c4cncnc4)ccc23)cc1Cl` [Compound 678], the figure is 1000 to 10000 nM; as for `Fc1ccc(Nc2nc(-c3ccnnc3)nc3ccccc23)cc1Cl` [Compound 1216], below 1000 nM.
As for `CNc1nc(-c2cccnc2)nc2cc(-c3ccc(C#N)cc3)c(C)cc12` [Compound 1410], the figure is 1000 to 10000 nM; as for `Fc1ccc(Nc2nc(-c3cnccn3)nc3cc(Cl)ccc23)cc1Cl` [Compound 1141], below 1000 nM.
As for `COc1ccc2nc(-c3cnccn3)nc(Nc3cc(Cl)cc(Cl)c3)c2c1` [Compound 1194], the figure is below 1000 nM; as for `FC(F)Oc1cccc(Nc2nc(-c3ccnnc3)nc3cc(Cl)ccc23)c1` [Compound 1200], 1000 to 10000 nM.
Consider `COc1cccc(-c2ccc3nc(-c4cccnc4)nc(Nc4ccc(F)c(Cl)c4)c3c2)c1OC` [Compound 644], for which the IC50 is 1000 to 10000 nM.
As for `COc1cccc(-c2csc(Nc3nc(-c4cccnc4)nc4ccc(OC)cc34)n2)c1` [Compound 434], the figure is 1000 to 10000 nM; as for `COc1ccc2nc(-c3cccnc3)nc(Nc3nnc(-c4ccc(Br)cc4)s3)c2c1` [Compound 428], 1000 to 10000 nM.

By IC50 is commonly meant the concentration needed to halve the response being measured.
